According to publication PMC5881522, “Molecular Defects in Cardiac Myofilament Ca^2+-Regulation Due to Cardiomyopathy-Linked Mutations Can Be Reversed by Small Molecules Binding to Troponin” (Frontiers in Physiology, 2018):
“Also recorded” adds a separate entry of the source.

Assays:
[1] = target: T1, thin filaments containing E180G tropomyosin (TPM1 E180G, HCM) (Homo sapiens, UniProt P19429+P45379+P63316); experiment: IVMA Ca2+-activation curves, TPM1 E180G; format: biochemical; details: phosphorylated and unphosphorylated E180G tropomyosin thin filaments, 25 μM for Quercetin and ECG
T1 construct: isolate troponin from 100 mg of donor heart tissue; from tissue; host or cells: troponin: human donor heart; tropomyosin: baculovirus/Sf9 (gift); actin: rabbit fast-twitch skeletal muscle
Text: (§1) Recombinant human sequence tropomyosin was a gift from Kristen Nowak and Elyshia MacNamara, University, Western Australia. Wild-type α-tropomyosin (Tpm1.1) and mutant E180G tropomyosin were expressed in a baculovirus/Sf9 system (Akkari et al., [2002]; Marston et al., [2013]). Skeletal muscle F-actin and myosin were isolated from rabbit fast-twitch skeletal muscle as previously described (Messer et al., [2007]). TnC G159D mutant troponin was extracted from a mutant human heart sample (Dyer et al., [2009]), E99K mutant cardiac actin was extracted from the E99K transgenic mouse heart (Song et al., [2013]).
(§2) Thin filaments were reconstituted with 10 nM rabbit skeletal or mouse cardiac muscle α-actin (labeled with TRITC phalloidin), tropomyosin (40–60 nM), and troponin (60 nM) to study Ca^2+-regulation of filament motility by the quantitative in vitro motility assay (IVMA) (Fraser and Marston, [1995]; Messer et al., [2007]). Thin filament movement over a bed of immobilized rabbit fast skeletal muscle heavy meromyosin (100 μg/ml) was compared in paired motility cells, in which troponin varied by a single factor (mutation, phosphorylation state, or treatment with drug). The temperature was set to 29°C. Filament movement was recorded and analyzed as previously described (Marston et al., [1996]), yielding two parameters, the fraction of filaments moving and the speed of moving filaments. Only the fraction of filaments motile is used in this study.
The fraction motile was measured over a range of Ca^2+ concentrations to generate Ca^2+-activation curves. The data were fitted to the 4-variable Hill equation to yield a value for EC50 and nH. Most assays of the effect of compounds are single measurements. […]

[2] = target: T2, tropomyosin E180G mutant-containing thin filaments (Homo sapiens, UniProt P19429+P45379+P63316); experiment: Single [Ca2+] in vitro motility assay screen for re-coupling; format: biochemical; details: for Coupling Difference (Initial Screen E180G): 100 μM compound, difference between motility (%) in phosphorylated and unphosphorylated thin filaments, TPM1 E180G, >10% = re-coupling; for Coupling Difference (Initial Screen E180G) / re-coupling activity (in words): 0.037 μM Ca2+; for re-coupling activity (in words): E180G thin filaments
T2 construct: isolate troponin from 100 mg of donor heart tissue; from tissue; host or cells: troponin: human donor heart; tropomyosin: baculovirus/Sf9 (gift); actin: rabbit fast-twitch skeletal muscle
Description: as §2
For drug screening, motility was measured with paired phosphorylated and unphosphorylated tropomyosin E180G mutant-containing thin filaments at a fixed 0.037 μM Ca^2+. Most assays were single measurements.
For the rapid screening of compounds, we devised a single Ca^2+ concentration assay. This is illustrated in Figures 2A,B for quercetin. The test system contains skeletal muscle actin, human sequence recombinant tropomyosin 1.1 containing the E180G HCM-associated mutation and human cardiac troponin from donor hearts in the phosphorylated and unphosphorylated form. At 0.037 μM Ca^2+ the filaments are about 40% motile irrespective of phosphorylation level whilst when quercetin is added the phosphorylated Ca^2+ activity curve shifts to the right and % motility at 0.037 μM Ca^2+ drops, whilst the unphosphorylated level is unchanged. We have set a difference between phosphorylated and unphosphorylated >10% as indicating re-coupling activity. This assay method can also be used to construct a dose-response curve as shown. We investigated compounds in 4 categories.
Figure 2 Single [Ca^2+] screen for re-coupling compounds. […] Solid lines, phosphorylated state; dotted lines, unphosphorylated state. Purple lines and points, E180G thin filaments; green lines and points, E180G thin filaments + Quercetin (B) Dose -response curve for quercetin recoupling activity measured at a constant concentration of 0.037 μM Ca^2+. INSET, kinetic analysis of dose response curve; difference between phosphorylated and unphosphorylated states is plotted against quercetin concentration. The Hill equation is fitted to the data, EC50 = 8 μM. (C,D) The effect of 100 μM drug treatment on the difference between % of motility of phosphorylated and unphosphorylated tropomyosin E180G mutant-containing thin filaments at 0.037 μM Ca^2+. (C) EGCG-related molecules (for structures 1–28 see Figure S1 and Table 1). (D) Silybin, related compounds and other HsP90 inhibitors and Ca^2+ desensitizers. The threshold for positive re-coupling was set at a 10% difference (dotted line).

[3] = test system: isolated cardiomyocytes from ACTC E99K HCM transgenic mice; experiment: Lusitropic effect of dobutamine in isolated cardiomyocytes; format: cell-based; details: blunted in ACTC E99K mouse cardiomyocytes; preliminary experiments
Description: The main effect of uncoupling of the modulation of Ca^2+ sensitivity by TnI phosphorylation is the loss of the lusitropic response to beta adrenergic stimulation, which is usually accompanied by blunting of the whole physiological adrenergic response.

[4] = target: T3, thin filaments containing TnC G159D (TNNC1 G159D, DCM) (Homo sapiens, UniProt P19429+P45379+P63316, G159D); experiment: IVMA Ca2+-activation curves, TNNC1 G159D; format: biochemical; details: phosphorylated and unphosphorylated TnC G159D thin filaments
T3 construct: TnC G159D mutant troponin was extracted from a mutant human heart sample; from tissue; host or cells: mutant human heart sample (troponin); rabbit skeletal muscle (actin)
Text: as §1
Thin filaments were reconstituted with 10 nM rabbit skeletal or mouse cardiac muscle α-actin (labeled with TRITC phalloidin), tropomyosin (40–60 nM), and troponin (60 nM) to study Ca^2+-regulation of filament motility by the quantitative in vitro motility assay (IVMA) (Fraser and Marston, [1995]; Messer et al., [2007]). […] Filament movement was recorded and analyzed as previously described (Marston et al., [1996]), yielding two parameters, the fraction of filaments moving and the speed of moving filaments. […]
The fraction motile was measured over a range of Ca^2+ concentrations to generate Ca^2+-activation curves. […]

[5] = test system: Hsp90; design: method as in Khandelwal et al., 2013; details: ref Khandelwal et al., 2013; read-out: EC50 Hsp90 inhibition assay; cited from earlier work
[6] = dose-response of % motility difference at 0.037 μM Ca2+, Hill fit

Row | Coupling Difference (Initial Screen E180G) [2] | re-coupling activity (in words) [2] | SMILES | other results
1 | 3% | poor recoupling molecule | COc1cc([C@H]2Oc3cc(-c4oc5cc(O)cc(O)c5c(=O)c4O)ccc3O[C@@H]2CO)ccc1O [Dehydrosilybin A, 2,3-dehydrosilybin A] | effect on Ca2+-activation curves (desensitizer / re-coupler), in words [1]: ineﬀective
2 | 62% | restores coupling | COc1cc([C@@H]2Oc3cc(-c4oc5cc(O)cc(O)c5c(=O)c4O)ccc3O[C@H]2CO)ccc1O [Dehydrosilybin B, 2,3-dehydrosilybin B] | effect on Ca2+-activation curves (desensitizer / re-coupler), in words [1]: pure recoupling; effect on Ca2+-activation curves (desensitizer / re-coupler), in words ([1]; listed as dehydrosilybin B): recouples; EC50 [2, 6]: 47 µM
3 | 8% |  | O=C(O[C@@H]1Cc2c(O)cc(O)cc2O[C@@H]1c1ccc(O)c(O)c1)c1cc(O)c(O)c(O)c1 [Epicatechin Gallate] | effect on Ca2+-activation curves (desensitizer / re-coupler), in words ([1]; listed as ECG): pure desensitizer; also recorded: desensitizer but not a recoupler
4 | 69% |  | Oc1cc(O)c2c(c1)O[C@H](c1ccc(O)c(O)c1)[C@H](O)C2 [Epicatechin] | 
5 | 4% |  | COc1cc(C2Oc3ccc([C@H]4Oc5cc(O)cc(O)c5C(=O)[C@@H]4O)cc3OC2CO)ccc1O (stereo partly drawn) [Isosilybin] | 
6 | 46% |  | CO[C@@H]1[C@@H](OC(N)=O)[C@@H](O)[C@H](Oc2ccc3c(O)c(NC(=O)c4ccc(O)c(CC=C(C)C)c4)c(=O)oc3c2C)OC1(C)C [Novobiocin] | 
7 | 0% | do not re-couple | COC(=O)N1CCN(Cc2cccc(NC(=O)Nc3ccc(C)nc3)c2F)CC1 [Omecamtiv Mecarbil] | 
8 | 50% | effective re-couplers | COc1cc(/C=C/c2ccc(O)cc2)cc(OC)c1 [Pterostilbene] | 
9 | 63% | effective re-couplers | Oc1ccc(/C=C/c2cc(O)cc(O)c2)cc1 [Resveratrol] | lusitropic effect of dobutamine, in words [3]: restored
10 | 5% | complex dose sensitive | COc1cc([C@H]2Oc3cc([C@H]4Oc5cc(O)cc(O)c5C(=O)[C@@H]4O)ccc3O[C@@H]2CO)ccc1O [Silybin A] | effect on Ca2+-activation curves (desensitizer / re-coupler), in words [4]: pure desensitizer
11 | 12.0% |  | COc1cc(C2Oc3cc([C@H]4Oc5cc(O)cc(O)c5C(=O)[C@@H]4O)ccc3OC2CO)ccc1O (stereo partly drawn) [Silybin] | EC50 [2, 6]: 47 µM
12 | 35% |  | COc1cc([C@@H]2Oc3c(O)cc([C@H]4Oc5cc(O)cc(O)c5C(=O)[C@@H]4O)cc3[C@H]2CO)ccc1O [Silychristin] | 
13 | 20% |  | COc1cc([C@@H]2[C@H]3CO[C@@]4(O)C(=O)[C@@H]2C=C([C@H]2Oc5cc(O)cc(O)c5C(=O)[C@@H]2O)[C@@H]34)ccc1O [Silydianin] | 
14 | 30% |  | COc1ccc(-c2coc3cc(O[C@@H]4O[C@H](CO)[C@@H](O)[C@H](O)[C@H]4O)cc(O)c3c2=O)cc1 [Sissotrin] | 
15 | 60% |  | O=C1c2c(O)cc(O)cc2OC(c2ccc(O)c(O)c2)C1O (stereo not drawn) [Taxifolin] | 
16 | 50% | effective re-couplers | NCCCCCCNS(=O)(=O)c1cccc2c(Cl)cccc12 [W-7] | 
17 | 27.0% | effective re-couplers | COc1cccc(-c2cc(C(=O)OC3COc4cc(O)cc(O)c4C3)ccc2OC)c1 (stereo not drawn) [compound 2] | EC50 [2, 6]: 30 µM; EC50 [5]: 22 µM
18 | 27.0% |  | COc1cccc(C(=O)OC2COc3cccc(O)c3C2)c1 (stereo not drawn) [compound 4] | EC50 [2, 6]: 34 µM; EC50 [5]: > 100 µM
19 | −11.0% | reverse effect | COc1ccc(C(=O)OC2COc3cc(OC)cc(OC)c3C2)cc1 (stereo not drawn) [compound 7] | EC50 [2, 6]: 67 µM; EC50 [5]: 32 µM
20 | No Effect | inactive | COc1cc(OC)c2c(c1)OCC(OC(=O)c1ccc(OC(C)=O)c(CC=C(C)C)c1)C2 (stereo not drawn) [compound 8] | EC50 [5]: 38 µM
21 | 20.0% |  | COc1ccc(C(=O)OC2COc3cccc(O)c3C2)cc1 (stereo not drawn) [compound 9] | EC50 [2, 6]: 35 µM; EC50 [5]: > 100 µM
22 | −1.0% |  | O=C(O[C@H]1COc2cc(O)cc(O)c2C1)c1cccc(O)c1 [compound 12] | nH (Table 6-1, E180G + Drug) ([2]; Hill coefficient of dose-response of % motility difference, 0.037 µM Ca2+): No%Eﬀect; EC50 (Table 6-1, E180G + Drug) ([2]; difference between phosphorylated and dephosphorylated TPM1 E180G thin filaments, 0.037 µM Ca2+, Hill fit): No%Eﬀect; E180G EC50 % Motility Difference [2, 6]: No Effect; Magnitute (% difference) ([2]; fitted magnitude of dose-response of % motility difference, 0.037 µM Ca2+): No%Eﬀect; EC50 [5]: 63 µM
23 | 6.0% | inactive | CCOc1cccc(C(=O)OC2COc3cc(OC)cc(OC)c3C2)c1 (stereo not drawn) [compound 16] | EC50 [2, 6]: 31 µM; EC50 [5]: 8 µM
24 | 24.0% | re-coupler | COc1cc(OC)cc(C(=O)OC2COc3cc(OC)cc(OC)c3C2)c1 (stereo not drawn) [compound 19] | EC50 [5]: 21 µM

Row | SMILES | Coupling Difference (Initial Screen E180G) [2] | re-coupling activity (in words) [2] | other results
25 | Oc1cc(O)c2c(c1)O[C@H](c1cc(O)c(O)c(O)c1)[C@H](O)C2 [Epigallocatechin] | 62% |  | 
26 | Oc1cc(O)c2c(c1)O[C@H](c1cc(O)c(O)c(O)c1)[C@@H](O)C2 [Gallocatechin] | 68% |  | 
27 | O=c1c(O)c(-c2ccc(O)c(O)c2)oc2cc(O)cc(O)c12 [Quercetin] | 51% |  | effect on Ca2+-activation curves (desensitizer / re-coupler), in words [1]: typical pure recoupler; also recorded: pure recoupling; EC50 [2, 6]: 8 µM
